Data set [1] can be described thus: Half-life and NO delivery in physiological solution (NO by method of Saville). It counts as physicochemical. As to the method: In addition, the half-lives for these compositions in physiological solution were measured. The half-life is time required for the composition to lose one half of its bound NO. The amount of NO in the composition is determined by the method of Saville, as described in Example 13.
The concentration of R—S—NO groups in a sample is based on the method reported in Saville, Analyst 83:620 (1958). By this method, R—S—NO groups are converted into an azo dye. The concentration of this dye is determined by measuring the absorbance at 540 nm (ε˜50,000 M^−1 cm^−1). The procedure is as follows:
A given volume (50 μl−1 m) of the sample to be assayed is added to an equivalent volume of solution A and solution B. The two samples are set aside for 5 minutes to allow formation of the diazonium salt, after which an equivalent volume of solution C is added to each mixture. Color formation, indicative of the azo dye product, is usually complete by 5 minutes. The sample absorbance is then read spectrophotometrically at 540 nm. The RSNO is quantified as the difference in absorbance between solution B and A. (i.e. B−A). In the event that the background nitrite concentration is high (i.e. increased background in A), the accuracy of the measurement can be increased by the addition of an equivalent volume of 0.5% ammonium sulfamate in acid (45 mM) 5 minutes prior to the addition of sulfanilamide. […]

For data set [2] the following is noted: cited from earlier work.

For `CC(C)(SN=O)[C@H](N)C(=O)O` [S-nitroso-penicillamine], the “time able to deliver NO” value in data set [1] was “no more than one”.
For `N[C@@H](CSN=O)C(=O)O` [S-nitrosocysteine], the “lifetime in physiological solution” value in data set [2] is listed as “no more than about an hour”.
`CC(C)(SN=O)C(N)C(=O)O` (racemic) [S-nitroso-D,L-penicillamine]: in data set [2], the “lifetime in physiological solution” value is “no more than about an hour”.
